From patent US20190276872A1, “DETERMINATION OF INTERFERENTS IN A SAMPLE” (Roche Diagnostics Operations, Inc., priority 2016, published 2019)

What was measured:
Normal plasma pool [1] = assay: APTT assay (Roche APTT LS on Roche cobas t 711 coagulation analyzer), spiked normal plasma pool; conditions: for effect of spiked amount on clotting time of APTT assay: increasing concentrations, normal plasma sample; for APTT result: normal plasma pool
Normal plasma pool [2] = assay: Thrombin time assay (Roche Thrombin Time Reagent on Roche cobas t 711), spiked normal plasma pool; conditions: for effect of spiked amount on clotting time of thrombin time (TT) assay: increasing concentrations, normal plasma sample; for TT result: normal plasma pool
pathological plasma pool = assay: Thrombin time assay (Roche Thrombin Time Reagent on Roche cobas t 711), spiked pathological plasma pool; conditions: for TT result: pathological plasma pool
Experimental: [The source words this procedure for another target and reports this target under the same test.] A TT result of 19 s would result in a conjugated bilirubin concentration x=4.95 mg/dL. The calibration curve shown above was generated by spiking increasing amount of bilic to a normal plasma sample.

Compound: C=CC1=C(C)/C(=C/c2[nH]c(Cc3[nH]c(/C=C4\NC(=O)C(C)=C4C=C)c(C)c3CCC(=O)O)c(CCC(=O)O)c2C)NC1=O [unconjugated bilirubin]
- effect of spiked amount on clotting time of APTT assay (Normal plasma pool [1]): influences APTT results only marginally
- APTT result (Normal plasma pool [1]; spiked at 6.60 mg/dL): 30.70 s
- APTT result (Normal plasma pool [1]; spiked at 13.20 mg/dL): 31.10 s
- APTT result (Normal plasma pool [1]; spiked at 19.80 mg/dL): 30.80 s
- APTT result (Normal plasma pool [1]; spiked at 26.40 mg/dL): 30.80 s
- APTT result (Normal plasma pool [1]; spiked at 33.00 mg/dL): 30.70 s
- APTT result (Normal plasma pool [1]; spiked at 39.60 mg/dL): 30.50 s
- APTT result (Normal plasma pool [1]; spiked at 46.20 mg/dL): 30.50 s
- APTT result (Normal plasma pool [1]; spiked at 52.80 mg/dL): 30.30 s
- APTT result (Normal plasma pool [1]; spiked at 59.40 mg/dL): 30.60 s
- APTT result (Normal plasma pool [1]; spiked at 66.00 mg/dL): 30.30 s
- effect of spiked amount on clotting time of thrombin time (TT) assay (Normal plasma pool [2]): does not seem to influence thrombin time results
- TT result (Normal plasma pool [2]; spiked at 6.60 mg/dL): 16.30 s
- TT result (Normal plasma pool [2]; spiked at 13.20 mg/dL): 16.30 s
- TT result (Normal plasma pool [2]; spiked at 19.80 mg/dL): 16.00 s
- TT result (Normal plasma pool [2]; spiked at 26.40 mg/dL): 16.40 s
- TT result (Normal plasma pool [2]; spiked at 33.00 mg/dL): 16.40 s
- TT result (Normal plasma pool [2]; spiked at 39.60 mg/dL): 16.40 s
- TT result (Normal plasma pool [2]; spiked at 46.20 mg/dL): 16.40 s
- TT result (Normal plasma pool [2]; spiked at 52.80 mg/dL): 16.60 s
- TT result (Normal plasma pool [2]; spiked at 59.40 mg/dL): 16.50 s
- TT result (Normal plasma pool [2]; spiked at 66.00 mg/dL): 16.60 s

Compound: conjugated bilirubin
- effect of spiked amount on clotting time of APTT assay (Normal plasma pool [1]): systematically prolonged
- APTT result (Normal plasma pool [1]; spiked at 2.00 mg/dL): 27.90 s
- APTT result (Normal plasma pool [1]; spiked at 4.00 mg/dL): 28.40 s
- APTT result (Normal plasma pool [1]; spiked at 6.00 mg/dL): 29.00 s
- APTT result (Normal plasma pool [1]; spiked at 8.00 mg/dL): 29.70 s
- APTT result (Normal plasma pool [1]; spiked at 9.00 mg/dL): 30.00 s
- APTT result (Normal plasma pool [1]; spiked at 10.00 mg/dL): 30.50 s
- APTT result (Normal plasma pool [1]; spiked at 11.00 mg/dL): 30.70 s
- APTT result (Normal plasma pool [1]; spiked at 12.00 mg/dL): 31.10 s
- APTT result (Normal plasma pool [1]; spiked at 13.00 mg/dL): 31.50 s
- APTT result (Normal plasma pool [1]; spiked at 15.00 mg/dL): 32.20 s
- effect of spiked amount on clotting time of thrombin time (TT) assay (Normal plasma pool [2]): systematically prolonged
- TT result (Normal plasma pool [2]; spiked at 1.00 mg/dL): 16.70 s
- TT result (Normal plasma pool [2]; spiked at 2.00 mg/dL): 17.40 s
- TT result (Normal plasma pool [2]; spiked at 3.00 mg/dL): 17.80 s
- TT result (Normal plasma pool [2]; spiked at 4.00 mg/dL): 18.50 s
- TT result (Normal plasma pool [2]; spiked at 5.00 mg/dL): 19.20 s
- TT result (Normal plasma pool [2]; spiked at 6.00 mg/dL): 19.50 s
- TT result (Normal plasma pool [2]; spiked at 7.00 mg/dL): 20.00 s
- TT result (Normal plasma pool [2]; spiked at 8.00 mg/dL): 20.50 s
- TT result (Normal plasma pool [2]; spiked at 9.00 mg/dL): 21.30 s
- TT result (Normal plasma pool [2]; spiked at 10.00 mg/dL): 21.70 s

Compound: hemoglobin
- effect of spiked amount on clotting time of APTT assay (Normal plasma pool [1]): systematically shortened
- APTT result (Normal plasma pool [1]; spiked at 130.00 mg/dL): 28.40 s
- APTT result (Normal plasma pool [1]; spiked at 260.00 mg/dL): 28.10 s
- APTT result (Normal plasma pool [1]; spiked at 390.00 mg/dL): 27.90 s
- APTT result (Normal plasma pool [1]; spiked at 520.00 mg/dL): 27.60 s
- APTT result (Normal plasma pool [1]; spiked at 650.00 mg/dL): 27.40 s
- APTT result (Normal plasma pool [1]; spiked at 780.00 mg/dL): 27.20 s
- APTT result (Normal plasma pool [1]; spiked at 910.00 mg/dL): 26.70 s
- APTT result (Normal plasma pool [1]; spiked at 1040.00 mg/dL): 26.30 s
- APTT result (Normal plasma pool [1]; spiked at 1170.00 mg/dL): 26.20 s
- APTT result (Normal plasma pool [1]; spiked at 1300.00 mg/dL): 25.70 s
- effect of spiked amount on clotting time of thrombin time (TT) assay (pathological plasma pool; increasing concentrations, pathological plasma sample): systematically shortened
- TT result (pathological plasma pool; spiked at 130.00 mg/dL): 38.50 s
- TT result (pathological plasma pool; spiked at 260.00 mg/dL): 38.10 s
- TT result (pathological plasma pool; spiked at 390.00 mg/dL): 37.60 s
- TT result (pathological plasma pool; spiked at 520.00 mg/dL): 36.70 s
- TT result (pathological plasma pool; spiked at 650.00 mg/dL): 36.30 s
- TT result (pathological plasma pool; spiked at 780.00 mg/dL): 35.70 s
- TT result (pathological plasma pool; spiked at 910.00 mg/dL): 35.00 s
- TT result (pathological plasma pool; spiked at 1040.00 mg/dL): 34.40 s
- TT result (pathological plasma pool; spiked at 1170.00 mg/dL): 33.60 s
- TT result (pathological plasma pool; spiked at 1300.00 mg/dL): 33.40 s
